Reference: ChEMBL document CHEMBL1158309, “Callyspongins A and B: Novel Polyacetylene Sulfates from the Marine Sponge Callyspongia truncata That Inhibit Fertilization of Starfish Gametes” (J Nat Prod, 1996)
≈ marks a conversion by molar mass, not a printed value. Calls of active or inactive are those of the source. No cut-off for these calls is given here.

Legend:
[1] = Antifertilization activity in Asterias amurensis oocyte assessed as inhibition of 1-methyladenine-induced oocyte maturation at 100 uM; format: functional, cell-based
[2] = Antifertilization activity in Asterias amurensis sperm assessed as inhibition of sperm motility after 30 mins; format: functional, cell-based
[3] = Antifertilization activity in Asterias amurensis egg assessed as inhibition of egg activation after 30 mins; format: functional
[4] = Antifertilization activity in Asterias amurensis fertilized egg assessed as inhibition of blastula development at 100 uM; format: functional
[5] = Toxicity against Asterias amurensis egg in sea water at 100 uM; settings: buffer
[6] = Toxicity against Asterias amurensis embryos lysed in sea water at 100 uM; parameters: species or system Embryo; settings: buffer
[7] = Toxicity against Asterias amurensis sperm in sea water at 100 uM; format: cell-based

For `C#C/C=C\CCCC/C=C\C#CC#CCCCC#CC#C[C@H](COS(=O)(=O)O)OS(=O)(=O)O`, the Activity [1] was “inactive”, the MIC [2] was 50 µM (≈ 24.6 µg/mL) and the MIC [3] was 6.3 µM (≈ 3.1 µg/mL). For the same compound, the Activity [4] was “inactive”.
In the case of `C#C/C=C\CCCC/C=C\C#CC#CCCCC#CC#C[C@@H](O)COS(=O)(=O)O`, the Activity [1] is reported as “inactive”, the MIC [2] is reported as 100 µM (≈ 41.3 µg/mL) and the MIC [3] is reported as 50 µM (≈ 20.6 µg/mL). For the same compound, the Activity [4] was “inactive”.
In the case of `C#C/C=C\CCCC/C=C\C#CC#CCCCC#CC#C[C@@H](O)CO` [SIPHONODIOL], the Activity [5] is reported as “Toxic”, the Activity [6] is reported as “Toxic” and the Activity [1] is reported as “inactive”. For the same compound, the MIC [2] was 13 µM (≈ 4.32 µg/mL), the Activity [7] was “Toxic” and the MIC [3] was > 200 µM.
